Test results taken from patent publication US7291217B2, “Non-toxic corrosion-protection pigments based on rare earth elements” (University of Dayton, priority 2002, dated 2007).
Where “and” joins values, the source holds several entries; their conditions need not be identical. Equal values may be shown once.

Experiments:
[1] = pH change on placing the compound into deionized water of pH 7; type: physicochemical; details: simple laboratory experiment
Description: A simple laboratory experiment confirms this effect. […] However, if icosahedral Ce(NO3)6^2− (note that this ion contains no hydroxide) is placed into deionized water of pH 7, a quite remarkable pH drop to −1 can be observed. The released tetravalent cerium ions will scavenge virtually all of the available OH^− ions in solution (possibly even degrading H2O itself to obtain OH^−), resulting in this dramatic pH drop.

[2] = reduction to the trivalent ion, cited from earlier work; for oxidation-reduction potential: in acid solution (pH 0); for calculated redox potential: in acidic solution, Nugent et al. 1971
[3] = Static salt fog accelerated corrosion test (ASTM B-117) of PVB wash primer containing the pigment, rated by ASTM D-1654; details: ASTM D-1654 rating; for B-117 Proc. A: failure at scribe; for B-117 Proc. B: unscribed areas
Experimental: (§1) The corrosion-inhibiting performance of CeIV pigments was evaluated by incorporating them into primer paint formulations. […] The wash primer is composed of a resin, an acid, a corrosion-inhibiting pigment, powdered talc, and carbon lampblack. The acid content of this wash primer provides a rigorous initial test of the stability and performance of the pigments. Other, more benign, polymer-based binder and resin systems might not separate the compounds based on their performance as effectively or as rapidly.
(§2) PVB was used exclusively throughout testing to avoid preparation and compositional complications during analysis of pigment performance. However, the invention is not limited to the use of PVB.
(§3) A small amount (0.2 g) of powdered talc (magnesium silicate) “filler” was added. Lampblack was not added to these samples. These components were mixed thoroughly by hand and 3.8 grams of phosphoric acid diluent added with further mixing. This rough processing allowed direct comparisons of pigment performance to be made without complications due to powder treatments, modifications, and additives.
(§4) This is not the conventional paint application procedure for aluminum alloys. Under normal service conditions, aluminum alloys are first subjected to a hexavalent chromium-containing conversion coating prior to primer application. However, the conversion coating was omitted so that the performance of the pigment alone could be evaluated and not the synergistic effects of hexavalent chromium (in the conversion coating) or even of barrier films (in the phosphate or anodized coatings).
(§5) This accelerated corrosion test exposes samples to a constant salt-water fog and is a de facto test of solubility for corrosion inhibitors. […] This accelerated corrosion test exposes samples to a cycle of fog of dilute salt and ammonium sulfate at room temperature followed by forced-air drying at an elevated temperature.
(§6) After the paint dried for 24 hours, each plate was scribed with an X and the plate edges were sealed with PVC tape to eliminate corrosion edge effects.
(§7) Two visual observations are associated with this rating test. Procedure A involves a rating of the failure at the scribe—the representative creepage of corrosion away from the scribe. […] In this way, not only the bulk corrosion-inhibiting action of a pigment through the binder can be rated, but also its “throwing power”.

[4] = Cyclic Prohesion accelerated corrosion test (ASTM G-85.5) of PVB wash primer containing the pigment, rated by ASTM D-1654; details: ASTM D-1654 rating; for G-85 Proc. A: failure at scribe; for G-85 Proc. B: unscribed areas
Experimental: as §1, §2, §3, §4, §5, §6, §7

[5] = in water; resulting from the reported solubility product; cited from earlier work
[6] = 2024-T3, 117 h, inhibitor conc. 1.86 × 10^−3 M (25% of Cr), two cells per column
[7] = 7075-T6, 117 h, inhibitor conc. 1.86 × 10^−3 M (25% of Cr), two cells per column
[8] = 2024-T3, 139 h, inhibitor conc. 3.72 × 10^−3 M (50% of Cr), sample and duplicate
[9] = 7075-T6, 139 h, inhibitor conc. 3.72 × 10^−3 M (50% of Cr), sample and duplicate
[10] = 2024-T3, 117 h, inhibitor conc. 7.44 × 10^−4 M (10% of Cr), sample and duplicate
[11] = 7075-T6, 117 h, inhibitor conc. 7.44 × 10^−4 M (10% of Cr), sample and duplicate
[12] = 2024-T3, 139 h, inhibitor conc. 7.44 × 10^−4 M (10% of Cr), sample and duplicate
[13] = 7075-T6, 139 h, inhibitor conc. 7.44 × 10^−4 M (10% of Cr), sample and duplicate
[14] = 2024-T3, 144 h, inhibitor conc. 5.2 × 10^−4 M (7% of Cr), sample and duplicate
[15] = 7075-T6, 144 h, inhibitor conc. 5.2 × 10^−4 M (7% of Cr), sample and duplicate
[16] = 2024-T3, 144 h, inhibitor conc. 3.72 × 10^−3 M (50% of Cr), sample and duplicate
[17] = 7075-T6, 144 h, inhibitor conc. 3.72 × 10^−3 M (50% of Cr), sample and duplicate

O=[N+]([O-])O.O=[N+]([O-])O.O=[N+]([O-])O.O=[N+]([O-])O.O=[N+]([O-])O.O=[N+]([O-])O.[Ce] [Ce(NO3)6^2−]
pH after placing into deionized water of pH 7 [1]: −1

[Ce+4] [Ce^+4]
oxidation-reduction potential [2]: 1.72 V

[Cr+6] [Cr^+6, reference compound]
oxidation-reduction potential [2]: 1.36 V

CCCCCCCC[N+](C)(CCCCCCCC)CCCCCCCC.CCCCCCCC[N+](C)(CCCCCCCC)CCCCCCCC.O=[N+]([O-])[O-].O=[N+]([O-])[O-].O=[N+]([O-])[O-].O=[N+]([O-])[O-].O=[N+]([O-])[O-].O=[N+]([O-])[O-].[Ce+4] [Nitrate/Adogen 464]
B-117 Proc. A [3, 6]: 5 | B-117 Proc. A [3, 7]: 5 | B-117 Proc. B [3, 6]: 5 | B-117 Proc. B [3, 7]: 3 and 5 | G-85 Proc. A [4, 6]: 7 | G-85 Proc. A [4, 7]: 7 | G-85 Proc. B [4, 6]: 6 | G-85 Proc. B [4, 7]: 6

CCCC[N+](CCCC)(CCCC)CCCC.CCCC[N+](CCCC)(CCCC)CCCC.O=[N+]([O-])[O-].O=[N+]([O-])[O-].O=[N+]([O-])[O-].O=[N+]([O-])[O-].O=[N+]([O-])[O-].O=[N+]([O-])[O-].[Ce+4] [Nitrate/NBu4^+]
B-117 Proc. A [3, 6]: 7 | B-117 Proc. A [3, 7]: 7 and 6 | B-117 Proc. B [3, 6]: 5 and 6 | B-117 Proc. B [3, 7]: 6 | G-85 Proc. A [4, 6]: 9 | G-85 Proc. A [4, 7]: 9 | G-85 Proc. B [4, 6]: 8 | G-85 Proc. B [4, 7]: 8

CC[N+](CC)(CC)CC.CC[N+](CC)(CC)CC.O=[N+]([O-])[O-].O=[N+]([O-])[O-].O=[N+]([O-])[O-].O=[N+]([O-])[O-].O=[N+]([O-])[O-].O=[N+]([O-])[O-].[Ce+4] [Nitrate/NEt4^+]
B-117 Proc. A [3, 6]: 6 | B-117 Proc. A [3, 7]: 6 and 5 | B-117 Proc. B [3, 6]: 3 | B-117 Proc. B [3, 7]: 4 | G-85 Proc. A [4, 6]: 9 and 10 | G-85 Proc. A [4, 7]: 10 | G-85 Proc. B [4, 6]: 7 and 8 | G-85 Proc. B [4, 7]: 8

C[N+](C)(C)C.C[N+](C)(C)C.O=[N+]([O-])[O-].O=[N+]([O-])[O-].O=[N+]([O-])[O-].O=[N+]([O-])[O-].O=[N+]([O-])[O-].O=[N+]([O-])[O-].[Ce+4] [Nitrate/NMe4^+]
G-85 Proc. A [4, 6]: 8 and 7 | G-85 Proc. A [4, 7]: 8 and 7 | G-85 Proc. B [4, 6]: 7 and 6 | G-85 Proc. B [4, 7]: 7 and 6

CCCCC[N+](CCCCC)(CCCCC)CCCCC.CCCCC[N+](CCCCC)(CCCCC)CCCCC.O=[N+]([O-])[O-].O=[N+]([O-])[O-].O=[N+]([O-])[O-].O=[N+]([O-])[O-].O=[N+]([O-])[O-].O=[N+]([O-])[O-].[Ce+4] [Nitrate/NPe4^+]
B-117 Proc. A [3, 6]: 6 | B-117 Proc. A [3, 7]: 6 | B-117 Proc. B [3, 6]: 5 | B-117 Proc. B [3, 7]: 6 | G-85 Proc. A [4, 6]: 9 | G-85 Proc. A [4, 7]: 9 | G-85 Proc. B [4, 6]: 8 | G-85 Proc. B [4, 7]: 7

CCC[N+](CCC)(CCC)CCC.CCC[N+](CCC)(CCC)CCC.O=[N+]([O-])[O-].O=[N+]([O-])[O-].O=[N+]([O-])[O-].O=[N+]([O-])[O-].O=[N+]([O-])[O-].O=[N+]([O-])[O-].[Ce+4] [Nitrate/NPr4^+]
B-117 Proc. A [3, 6]: 7 | B-117 Proc. A [3, 7]: 7 | B-117 Proc. B [3, 6]: 7 and 6 | B-117 Proc. B [3, 7]: 6 | G-85 Proc. A [4, 6]: 9 and 10 | G-85 Proc. A [4, 7]: 9 and 8 | G-85 Proc. B [4, 6]: 8 and 9 | G-85 Proc. B [4, 7]: 7

[Pr+4] [Pr^+4]
calculated redox potential [2]: 3.2 V

[Tb+4] [Tb^+4]
calculated redox potential [2]: 3.2 V

[Ce+4].[OH-].[OH-].[OH-].[OH-] [ceric hydroxide, reference compound]
pH after placing into deionized water of pH 7 [1]: only a minor pH change | cerium solubility [5]: approximately 5×10^−12 moles/liter Ce^+4

ammonium 18-vanadatocerate
B-117 Proc. A [3, 8]: 7 | B-117 Proc. A [3, 9]: 7 | B-117 Proc. B [3, 8]: 6 | B-117 Proc. B [3, 9]: 6 | G-85 Proc. A [4, 8]: 7 and 8 | G-85 Proc. A [4, 9]: 8 | G-85 Proc. B [4, 8]: 6 and 7 | G-85 Proc. B [4, 9]: 6 and 7

calcium 10-tungstocerate
B-117 Proc. A [3, 10]: 3 | B-117 Proc. A [3, 11]: 2 | G-85 Proc. A [4, 10]: 7 | G-85 Proc. A [4, 11]: 7 | G-85 Proc. B [4, 10]: 6 | G-85 Proc. B [4, 11]: 6

calcium 11-phosphotungstocerate
B-117 Proc. A [3, 12]: 6 and 5 | B-117 Proc. A [3, 13]: 4 | B-117 Proc. B [3, 12]: 4 | B-117 Proc. B [3, 13]: 3 | G-85 Proc. A [4, 12]: 8 and 7 | G-85 Proc. A [4, 13]: 6 | G-85 Proc. B [4, 12]: 8 and 7 | G-85 Proc. B [4, 13]: 5 and 6

calcium 12-molybdocerate
B-117 Proc. A [3, 14]: 6 and 7 | B-117 Proc. A [3, 15]: 7 | B-117 Proc. B [3, 14]: 4 and 5 | B-117 Proc. B [3, 15]: 6 | G-85 Proc. A [4, 14]: 8 and 7 | G-85 Proc. A [4, 15]: 8 and 7 | G-85 Proc. B [4, 14]: 6 | G-85 Proc. B [4, 15]: 7 and 5

lithium periodatocerate
B-117 Proc. A [3, 16]: 6 and 5 | B-117 Proc. A [3, 17]: 4 | B-117 Proc. B [3, 16]: 6 and 5 | B-117 Proc. B [3, 17]: 2 and 3 | G-85 Proc. A [4, 16]: 7 | G-85 Proc. A [4, 17]: 7 | G-85 Proc. B [4, 16]: 7 | G-85 Proc. B [4, 17]: 7

magnesium 10-tungstocerate
B-117 Proc. A [3, 10]: 5 | B-117 Proc. A [3, 11]: 5 and 4 | B-117 Proc. B [3, 10]: 2 | B-117 Proc. B [3, 11]: 2 | G-85 Proc. A [4, 10]: 9 | G-85 Proc. A [4, 11]: 8 | G-85 Proc. B [4, 10]: 8 | G-85 Proc. B [4, 11]: 7

magnesium 11-phosphotungstocerate
B-117 Proc. A [3, 12]: 6 | B-117 Proc. A [3, 13]: 5 | B-117 Proc. B [3, 12]: 5 | B-117 Proc. B [3, 13]: 5 | G-85 Proc. A [4, 12]: 7 | G-85 Proc. A [4, 13]: 7 | G-85 Proc. B [4, 12]: 6 | G-85 Proc. B [4, 13]: 6
